Laboratory results reported in patent US7153993B2, “Process for making polymorphic form A of 4-[6-acetyl-3-[3-(4-acetyl-3-hydroxy-2-propylphenylthio)propoxy]-2-propylphenoxy]butyric acid” (Medicinova, Inc., priority 2003, dated 2006).
Converted amounts (≈) assume the structure as drawn.

Assays:
[1] = Oral activity for treatment of asthma and allergic diseases; assay type: in vivo
[2] = Solubility of crystalline polymorphs in ether; assay type: physicochemical
Source text: After re-crystallization with individual solvents, compound (1) was subjected to powder X-ray diffractometry, thermal analysis and determination of solubility in ether; thus an exploratory evaluation of the crystalline polymorphism was made.

[3] = Solubility of compound (1) in ethanol/water (2:1); assay type: physicochemical; conditions: stirred one hour
Procedure: Samples of compound (1) (5 g) were suspended in ethanol/water (2:1, 100 mL) and stirred for one hour at temperatures of 22° C., 30° C., and 40° C., respectively. The suspensions were filtered and the solids dried in a vacuum oven at room temperature overnight to give the insoluble material. The solubilities were calculated by subtractive means based on recovered material.

CCCc1c(SCCCOc2ccc(C(C)=O)c(OCCCC(=O)O)c2CCC)ccc(C(C)=O)c1O [Compound (1), 4-[6-acetyl-3-[3-(4-acetyl-3-hydroxy-2-propylphenylthio)propoxy]-2-propylphenoxy]butyric acid]
oral activity for treatment of asthma and allergic diseases [1]: orally active

CCCc1c(SCCCOc2ccc(C(C)=O)c(OCCCC(=O)O)c2CCC)ccc(C(C)=O)c1O [Form I, 4-[6-acetyl-3-[3-(4-acetyl-3-hydroxy-2-propylphenylthio)propoxy]-2-propylphenoxy]butyric acid]
Solubility in ether ([2]; ether, listed as I): 36.7 mg/mL (≈ 69.2 mM)

CCCc1c(SCCCOc2ccc(C(C)=O)c(OCCCC(=O)O)c2CCC)ccc(C(C)=O)c1O [Form II, 4-[6-acetyl-3-[3-(4-acetyl-3-hydroxy-2-propylphenylthio)propoxy]-2-propylphenoxy]butyric acid]
solubility ([2]; ether, organic solvent or mixture): 40.5 mg/mL (≈ 76.3 mM)

CCCc1c(SCCCOc2ccc(C(C)=O)c(OCCCC(=O)O)c2CCC)ccc(C(C)=O)c1O [Form III, 4-[6-acetyl-3-[3-(4-acetyl-3-hydroxy-2-propylphenylthio)propoxy]-2-propylphenoxy]butyric acid]
Solubility in ether ([2]; ether, listed as III): 35.3 mg/mL (≈ 66.5 mM)

CCCc1c(SCCCOc2ccc(C(C)=O)c(OCCCC(=O)O)c2CCC)ccc(C(C)=O)c1O [Form IV, 4-[6-acetyl-3-[3-(4-acetyl-3-hydroxy-2-propylphenylthio)propoxy]-2-propylphenoxy]butyric acid]
Solubility in ether ([2]; ether, listed as IV): 45.8 mg/mL (≈ 86.3 mM)

CCCc1c(SCCCOc2ccc(C(C)=O)c(OCCCC(=O)O)c2CCC)ccc(C(C)=O)c1O [Form V, 4-[6-acetyl-3-[3-(4-acetyl-3-hydroxy-2-propylphenylthio)propoxy]-2-propylphenoxy]butyric acid]
Solubility in ether ([2]; ether, listed as V): 47.6 mg/mL (≈ 89.7 mM) | solubility compared to the other polymorphs ([2]; qualitative statement, solvent not stated): superior to the other polymorphs | Solubility in ethanol/water (2:1) ([3]; 30° C., listed as V (form A)): 15.7 mg/mL (≈ 29.6 mM) | Solubility in ethanol/water (2:1) ([3]; 40° C., listed as V (form A)): 46 mg/mL (≈ 86.7 mM) | solubility at 1 h ([3]; ethanol/water (2:1), 22 °C, organic solvent or mixture, thermodynamic from solid, 22° C.): 6.7 mg/mL (≈ 12.6 mM)

CCCc1c(SCCCOc2ccc(C(C)=O)c(OCCCC(=O)O)c2CCC)ccc(C(C)=O)c1O [undesired monoclinic polymorph, 4-[6-acetyl-3-[3-(4-acetyl-3-hydroxy-2-propylphenylthio)propoxy]-2-propylphenoxy]butyric acid]
Solubility in ethanol/water (2:1) ([3]; 22° C.): 3.4 mg/mL (≈ 6.41 mM) | Solubility in ethanol/water (2:1) ([3]; 30° C.): 6.1 mg/mL (≈ 11.5 mM) | Solubility in ethanol/water (2:1) ([3]; 40° C.): 17.2 mg/mL (≈ 32.4 mM)
